# Measured values as given in US10568913B2, “Method for generating mature β-like cells” (The University of Western Australia, priority 2013, dated 2020).
# Legend:
# [1] = test system: Ngn3+ islet progenitors; test: DsRed+ cell differentiation from purified Ngn3-GFP+ progenitors (Ngn3-GFP/RIP-DsRed mice); assay type: cell-based, mouse; details: calcitriol 10 nM with or without Nic 10 mM, day 4 (FIG. 17)
# Text: Approximately 7,500 E15.5 [at which the number of Ngn3^+ progenitors is peaked] mouse fetuses from both MIPGFP and Ngn3-GPF/RIP-DsRed lines were used for enrichment/purification of Ngn3^+ progenitors. Mouse pancreases were dissected under a stereoscope (Olympus, Tokyo, Japan). Eleven human fetal pancreases were collected from 18-22 week-fetuses (Table 1) and minced. Both mouse and human pancreases were enzymatically dissociated into single cells under aseptic conditions. Rat anti-E-cadherin (E-cad, also known as CD324 or uvomorulin) monoclonal antibody IgG2a (Invitrogen, Carlsbad), Alexa Fluor 647 anti-E-cad (eBioscience), rat anti-integrin α6 subunit (α6, also known as CD49f) mAb IgG2a, phycoerythrin (PE) rat anti-human α6 (Becton Dickson Biosciences, San Jose), PE anti-mouse CD133 (also known as prominin I, eBioscience), biotin rabbit anti-rat immunoglobumins, allophycocyanin (APC) rat anti-mouse CD45 and APC rat anti-mouse TER119 and streptavidin APC-Cy7, streptavidin PE-Texas Red, streptavidin APC (BD Biosciences) or streptavidin Alexa Fluor 750 (Invitrogen), were used. After each incubation with antibodies, cells were washed twice with FACS buffer (0.1% bovine serum albumin in phosphate buffered saline) and finally re-suspended in this buffer containing 1 μg/ml propidium iodide (PI) or 4′,6-diamidino-2-phenylindole (DAPI) for sorting (FACSAria II, Becton Dickson Labware, Bedford). The purity of sorted cells was determined by post-sort analysis. Data presented represented cell samples with over 90% purity.
# Sorted β-cell progenitor-enriched cells or Ngn3^+ β-cell progenitors were differentiated in 96-, 12- or 6-well plates (BD Labware). The basal differentiation medium is Dulbecco's Modified Eagle Medium (Invitrogen) with 5.75 or 27.5 mM D-glucose supplemented with 1% B27 (Invitrogen) and 100 μg/ml streptomycin and 100 units/ml penicillin. Growth factor-reduced Matrigel (200 μg/ml, BD Biosciences) was overlayed onto cells in the presence of various potential regulators. […]
# The number of β-like cells was directly quantified under a fluorescence microscope. […]
# [2] = test system: differentiated β-like cells; test: Maturation of differentiated β-like cells, glucose stimulated insulin secretion; assay type: cell-based, mouse; details: calcitriol 10 nM, 4 days; glucose 2.75 / 27.5 mM (FIG. 19)
# Experimental: The differentiated cells were washed twice with warm PBS. After pre-incubation with Krebs-Ringer buffer at 37° C. for 90 min, the cells were incubated at 37° C. for 60 min with basal D-glucose (2.75 mM) or stimulus D-glucose (27.5 mM). Then each conditioned medium was collected to determine the insulin concentration using an insulin ELISA kit (Mercodia AB, Uppsala, Sweden). Nic-containing differentiation medium was removed from the differentiated β-like cells. A warmed maturation medium was added to the differentiated cells. The maturation medium is Dulbecco's Modified Eagle Medium (Invitrogen) with 5.75 mM D-glucose without nicotinamide (10 mM), 2% B27 (Invitrogen) and 100 μg/ml streptomycin and 100 units/ml penicillin supplemented with calcitriol (10 nM). Cultures were incubated in 10% CO2 90% air at 37° C., for 4 days.
# [3] = test system: NeuroD; test: qRT-PCR of genes in matured insulin-secreting cells; assay type: cell-based, mouse; details: β-like cells treated with calcitriol
# Experimental: Real time quantitative RT-PCR analysis was carried out using power SYBR Green PCR Master Mix and SYBR® Green Cells-to-Ct™ Kits purchased from Applied Biosystems (Foster City, USA). cDNA was amplified by PCR: 95° C. for 10 min, followed by 40 cycles of 95° C. for 15 sec and 60° C. for 1 min. The number of cycles of threshold (Ct) was measured with an ABI Prism 7900HT Sequence Detection System (Applied Biosystems) or a Rotor-Gene RG-3000 (Corbet Research, Sydney, Australia). All quantifications (ΔCt) were normalized with the internal 18s rRNA level (2^−Δct). Nic-containing differentiation medium was removed from the differentiated β-like cells. A warmed maturation medium was added to the differentiated cells. The maturation medium is Dulbecco's Modified Eagle Medium (Invitrogen) with 5.75 mM D-glucose without nicotinamide (10 mM), 2% B27 (Invitrogen) and 100 μg/ml streptomycin and 100 units/ml penicillin supplemented with calcitriol (10 nM). Cultures were incubated in 10% CO2 90% air at 37° C., for 4 days.
# [4] = test system: MIN6 cells; test: Glucose stimulated insulin secretion in highly passaged MIN6 cells; assay type: cell-based, mouse; details: FIG. 20, 21
# Experimental: The differentiated cells were washed twice with warm PBS. After pre-incubation with Krebs-Ringer buffer at 37° C. for 90 min, the cells were incubated at 37° C. for 60 min with basal D-glucose (2.75 mM) or stimulus D-glucose (27.5 mM). Then each conditioned medium was collected to determine the insulin concentration using an insulin ELISA kit (Mercodia AB, Uppsala, Sweden). MIN6 cells were routinely maintained in a published protocol which contains Dulbecco's modified Eagle's medium (DMEM) containing 25 mM glucose, supplemented with 10% fetal calf serum, 2 mM L-glutamine, 25 mM Hepes, and 285 μM 2-mercaptoethanol. MIN6 cells presented in this study were at passages 30-40 (low passage, LP) or passages 60-70 (high passage, HP). All assays used MIN6 grown to 70-80% confluence unless otherwise stated.
# [5] = versus calcitriol; cited from earlier work
Structure (SMILES),β-cell differentiation of Ngn3+ islet progenitors (number of DsRed+ cells) [1],maturation of differentiated β-like cells (GSIS) [2],NeuroD expression [3],"glucose stimulated insulin secretion (GSIS) in dedifferentiated, highly passaged MIN6 cells [4]","hypercalcaemic effect, fold less [5] [fold]"
"C=C1/C(=C\C=C2/CCC[C@]3(C)[C@@H]([C@H](C)CCCC(C)(C)O)CC[C@@H]23)C[C@@H](O)C[C@@H]1O [Calcitriol, 1, 25 (OH)2 vitamin D3]",does not promote β-cell differentiation,promoted the maturation,further up-regulated,partially restores GSIS,
"C[C@H](CC#CC(C)(C)O)[C@H]1CC[C@@H]2/C(=C/C=C3C[C@@H](O)C[C@H](O)C3)CCC[C@@]21C [Inecalcitol, 19-nor-14-epi-23-yne calcitriol]",,,,,480
